In test [1] the test system is M. smegmatis. Put plainly: Activity against the M. tuberculosis model M. smegmatis. The class given is cell-based.
Test [2] addresses cis-DPPS (Rv2361c) (Mycobacterium tuberculosis, UniProt P9WFF7).
Test [3] deals with UPPS. The following applies: cited from earlier work.
Test [4] concerns the target Rv3378c (Mycobacterium tuberculosis, UniProt P9WJ61).
Test [5] concerns S. aureus. The settings on record: cited from earlier work.

Like-named read-outs stand apart in the source and are kept apart here.

cis-DPPS (Rv2361c), sequence (P9WFF7 whole entry): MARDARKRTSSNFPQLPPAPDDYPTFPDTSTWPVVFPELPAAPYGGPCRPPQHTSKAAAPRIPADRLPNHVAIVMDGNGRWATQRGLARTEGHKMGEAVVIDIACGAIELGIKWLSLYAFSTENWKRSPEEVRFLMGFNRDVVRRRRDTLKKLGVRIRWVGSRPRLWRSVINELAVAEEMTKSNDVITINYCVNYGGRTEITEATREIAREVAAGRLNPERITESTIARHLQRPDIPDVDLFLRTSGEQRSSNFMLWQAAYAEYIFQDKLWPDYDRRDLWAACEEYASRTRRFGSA
Rv3378c, sequence (P9WJ61 whole entry): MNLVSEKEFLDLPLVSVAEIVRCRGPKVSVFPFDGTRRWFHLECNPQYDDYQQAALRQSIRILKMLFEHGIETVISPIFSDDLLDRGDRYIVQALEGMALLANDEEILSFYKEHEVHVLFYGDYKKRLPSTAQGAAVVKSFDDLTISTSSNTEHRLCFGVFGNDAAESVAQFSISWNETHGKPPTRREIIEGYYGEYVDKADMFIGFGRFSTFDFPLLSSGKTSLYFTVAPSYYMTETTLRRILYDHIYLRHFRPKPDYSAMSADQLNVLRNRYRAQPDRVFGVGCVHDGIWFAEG

Take `O=P(O)(O)C(O)(Cc1cccc(-c2cccc3c2oc2ccccc23)c1)P(=O)(O)O` [BPH-629]: the “activity against M. smegmatis” value in test [1] was “inactive”. Further, the IC50 (commonly the concentration at which inhibition is half-maximal) in test [2] (read-out: IC50 against DPPS, cis-FPP as substrate) came to 0.61 µM.
In the case of `Cl.Cl.O=C(Nc1cccc(C2=NCCN2)c1)c1ccc(-c2ccc(C(=O)Nc3cccc(C4=NCCN4)c3)cc2)cc1` [BPH-1358], the UPPS inhibition result in test [3] was “potent UPPS inhibitor”. Besides, in test [4], the “activity against Rv3378c” value is “inactive”.
On to `C(=C\c1cc2ccc(C3=NCCN3)cc2[nH]1)/c1cc2ccc(C3=NCCN3)cc2[nH]1` [BPH-1417], for which the “in vivo activity against S. aureus” value in test [5] is “potent”. In addition, the concentration for half-maximal inhibition (IC50) was 0.5 to 20 µM in test [2] (read-out: IC50 against DPPS, depending on substrate) and 1.3 µM in test [2] (read-out: IC50 against cis-DPPS, substrate not stated).

Source of the values: PMC4412765 (Chemical biology & drug design, 2014).
